Measured values as given in US8426429B2, “2-amino-quinazoline derivatives useful as inhibitors of β-secretase (BACE)” (Jansssen Pharmaceutica N.V., priority 2004, dated 2013).

Biological target: T1, β-secretase (BACE) (Homo sapiens, UniProt P56817)
T1 construct: purchased Panvera
Assay: BACE FS1 % Inhibition Assay
Type: biochemical
Summary of the method: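 Percent inhibition per compound concentration was referenced to vehicle-treated enzyme and no-enzyme wells. Enzyme at a 4 μg/mL working stock plus compound was mixed for 20 min at room temperature before the FS1 substrate (300 μg/mL working stock) was added for a 1 h room-temperature reaction.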

T1 sequence (P56817 46-501): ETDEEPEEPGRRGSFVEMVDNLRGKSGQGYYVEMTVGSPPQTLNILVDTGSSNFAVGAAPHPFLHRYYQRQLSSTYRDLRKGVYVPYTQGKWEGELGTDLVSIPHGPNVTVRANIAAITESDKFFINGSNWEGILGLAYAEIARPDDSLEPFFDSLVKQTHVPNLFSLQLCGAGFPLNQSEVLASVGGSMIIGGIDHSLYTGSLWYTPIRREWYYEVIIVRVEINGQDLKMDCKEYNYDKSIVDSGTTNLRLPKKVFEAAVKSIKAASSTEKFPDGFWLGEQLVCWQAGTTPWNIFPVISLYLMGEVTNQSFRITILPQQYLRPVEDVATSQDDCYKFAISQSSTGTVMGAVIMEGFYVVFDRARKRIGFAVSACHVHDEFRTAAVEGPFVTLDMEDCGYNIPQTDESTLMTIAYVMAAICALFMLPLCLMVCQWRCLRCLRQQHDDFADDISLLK

Structure (SMILES)	% Inhibition (FS) (0.3 μM test compound)	% Inhibition (FS) (1 μM test compound)	% Inhibition (FS) (3 μM test compound)	also measured
CCCCCC1CC2(C(=O)NCCN3Cc4cc(Oc5ccccc5)ccc4N=C3N)CCC1CC2 (stereo not drawn) [Compound 194]	<30%	42%	38%	–
CCCC=Cc1ccc2c(c1)CN(CCNC(=O)c1cccc(C#N)c1)C(N)=N2 [Compound 568]	<30%	<30%	<30%	–
CC(C)(C)C(=O)Nc1cccc(CN2Cc3cc(Oc4ccccc4)ccc3N=C2N)c1 [Compound 290]	<30%	<30%	<30%	–
CC(C)c1ccccc1Oc1ccc2c(c1)CN(CCC(=O)NC1C3CC4CC(C3)CC1C4)C(N)=N2 (stereo not drawn) [Compound 466]	<30%	<30%	53%	–
COc1ccc(Sc2ccc3c(c2)CN(Cc2cccc(C(=O)N(C)C4CCCCC4)c2)C(N)=N3)cc1 [Compound 410]	<30%	39%	50%	–
Cc1ccccc1-c1ccc2c(c1)CN(CCNC(=O)C(C)(C)C)C(N)=N2 [Compound 660]	63%	86%	105%	–
CN(Cc1cccc(CC(=O)O)c1)C(=O)CCC(C1CCCCC1)N1Cc2cc(Oc3ccccc3)ccc2N=C1N (stereo not drawn) [Compound 778]	–	–	–	% Inhibition (FS) (0.3 μM compound, FS1 substrate): <30%; % Inhibition (FS) (1 μM compound, FS1 substrate): 77%
CN(C)c1ccc(Nc2ccc3c(c2)CN(Cc2cccc(C(=O)N(C)C4CCCCC4)c2)C(N)=N3)cc1 [Compound 438]	<30%	<30%	<30%	–
Cc1cc(C(=O)NCCN2Cc3cc(-c4ccccc4)ccc3N=C2N)c(C)o1 [Compound 586]	<30%	<30%	59%	–
NC1=Nc2ccc(Oc3ccccc3)cc2CN1C(CNC(=O)CC1CCCC1)C1CCCCC1 (stereo not drawn) [Compound 311]	74%	108%	118%	–
COc1ccc(-c2ccc3c(c2)CN(C(CCC(=O)N(C)C2CCCCC2)C2CCCCC2)C(N)=N3)cc1 (stereo not drawn) [Compound 226]	<30%	<30%	54%	–
CCCC(CNC(=O)C12CC3CC(CC(C3)C1)C2)N1Cc2cc(Oc3ccccc3)ccc2N=C1N (stereo not drawn) [Compound 555]	–	–	–	% Inhibition (FS) (0.3 μM test compound, 0.3 µM): <30%; % Inhibition (FS) (1 μM test compound, 1 µM): <30%; % Inhibition (FS) (3 μM test compound, 3 µM): 46%
NC1=Nc2ccc(Oc3ccccc3)cc2CN1CCNC(=O)CCc1ccccc1 [Compound 155]	–	–	<30%	% Inhibition (FS) (10 μM test compound): 49%
CN(C(=O)c1ncoc1C(Cc1ccccc1)N1Cc2cc(Oc3ccccc3)ccc2N=C1N)C1CCCCC1 (stereo not drawn) [Compound 559]	<30%	<30%	<30%	–
CC(C)CCC(=O)N1CCCC(N2Cc3cc(Oc4ccccc4)ccc3N=C2N)C1 (stereo not drawn) [Compound 613]	36%	31%	<30%	–
CC(C)(C)OC(=O)NCC(C1CCCCC1)N1Cc2cc(Oc3ccccc3)ccc2N=C1N (stereo not drawn) [Compound 257]	67%	105%	111%	–
NC1=Nc2ccc(-c3ccc4ccccc4c3)cc2CN1CCNC(=O)CCC(F)(F)F [Compound 686]	–	–	–	% Inhibition (FS) (0.3 μM compound, FS1 substrate): <30%; % Inhibition (FS) (1 μM compound, FS1 substrate): 73%; % Inhibition (FS) (3 μM compound, FS1 substrate): 80%
CCCC(CNC(=O)C12CC3CC(CC(C3)C1)C2)N1Cc2cc(Oc3ccccc3)ccc2N=C1N (stereo not drawn) [Compound 602]	–	–	–	% Inhibition (FS) (0.3 μM test compound, 0.3 µM): 78%; % Inhibition (FS) (1 μM test compound, 1 µM): 113%; % Inhibition (FS) (3 μM test compound, 3 µM): 121%
COc1ccccc1Sc1ccc2c(c1)CN(Cc1cccc(C(=O)N(C)C3CCCCC3)c1)C(N)=N2 [Compound 412]	<30%	<30%	49%	–
NC1=Nc2ccc(Oc3ccccc3)cc2CN1Cc1cccc(C(=O)NC2CCCCC2)c1 [Compound 451]	<30%	<30%	<30%	–
NC1=Nc2ccc(Oc3ccccc3)cc2CN1CC1CCN(C(=O)C23CC4CC(CC(C4)C2)C3)CC1 [Compound 527]	<30%	<30%	51%	–
CN1CCCC1CCNC(=O)c1cccc(CN2Cc3cc(Oc4ccccc4)ccc3N=C2N)c1 (stereo not drawn) [Compound 222]	<30%	<30%	<30%	–
COc1ccccc1Oc1ccc2c(c1)CN(Cc1cccc(C(=O)N(C)C3CCCCC3)c1)C(N)=N2 [Compound 232]	<30%	<30%	31%	–
NC1=Nc2ccc(-c3cccc(CO)c3)cc2CN1CCNC(=O)Cc1ccccc1 [Compound 599]	<30%	<30%	65%	–

Structure (SMILES)	% Inhibition (FS) (0.3 μM test compound)	% Inhibition (FS) (1 μM test compound)	% Inhibition (FS) (3 μM test compound)	also measured
COc1ccc(-c2nc3ccccc3s2)c(Oc2ccc3c(c2)CN(Cc2cccc(C(=O)N(C)C4CCCCC4)c2)C(N)=N3)c1 [Compound 469]	<30%	<30%	<30%	–
CC(C)(C)C1CCC(C(=O)NCCN2Cc3cc(Oc4ccccc4)ccc3N=C2N)CC1 (stereo not drawn) [Compound 184]	<30%	<30%	31%	–
COC(=O)[C@@H](COCc1ccccc1)N(C)C(=O)CC[C@@H](C1CCCCC1)N1Cc2cc(Oc3ccccc3)ccc2N=C1N [Compound 779]	–	–	–	% Inhibition (FS) (0.3 μM compound, FS1 substrate): 102%; % Inhibition (FS) (1 μM compound, FS1 substrate): 107%; % Inhibition (FS) (3 μM compound, FS1 substrate): 120%
NC1=Nc2ccc(Oc3ccccc3)cc2CN1CC1CCN(C(=O)C2CCCCC2)CC1 [Compound 525]	<30%	<30%	70%	–
NC1=Nc2ccc(Oc3ccccc3)cc2CN1Cc1cccc(CNC(=O)C(F)(F)F)c1 [Compound 307]	<30%	<30%	<30%	–
CCC[C@H](CNC(=O)CCC(C)C)N1Cc2cc(Oc3ccccc3)ccc2N=C1N [Compound 603]	101%	114%	122%	–
CC(C)CCC(=O)NCCN1Cc2cc(-c3ccc4ccccc4c3)ccc2N=C1N [Compound 668]	–	–	–	% Inhibition (FS) (0.3 μM compound, FS1 substrate): <30%; % Inhibition (FS) (1 μM compound, FS1 substrate): <30%; % Inhibition (FS) (3 μM compound, FS1 substrate): <30%
NC1=Nc2ccc(C3=CCCCC3)cc2CN1CCNC(=O)C1CCC(C(F)(F)F)CC1 (stereo not drawn) [Compound 704]	–	–	–	% Inhibition (FS) (0.3 μM compound, FS1 substrate): <30%; % Inhibition (FS) (1 μM compound, FS1 substrate): <30%; % Inhibition (FS) (3 μM compound, FS1 substrate): <30%
CN(C(=O)CCC(c1ccc(-c2ccccc2)cc1)N1Cc2cc(Oc3ccccc3)ccc2N=C1N)C1CCCCC1 (stereo not drawn) [Compound 420]	<30%	<30%	53%	–
Cc1ccc(-c2ccc3c(c2)CN(CCNC(=O)C2CCCCC2)C(N)=N3)cc1 [Compound 628]	<30%	<30%	32%	–
CCCC=Cc1ccc2c(c1)CN(CCNC(=O)c1ccc(NC(C)=O)cc1)C(N)=N2 [Compound 592]	<30%	<30%	<30%	–
CC(C)(C)NS(=O)(=O)c1ccccc1-c1ccc2c(c1)CN(CCNC(=O)C1CCCCC1)C(N)=N2 [Compound 542]	<30%	<30%	73%	–
Cc1cccc(Sc2ccc3c(c2)CN(Cc2cccc(C(=O)N(C)C4CCCCC4)c2)C(N)=N3)c1 [Compound 405]	43%	106%	118%	–
CC(C)(C)C(=O)NCCN1Cc2cc(-c3ccncc3)ccc2N=C1N [Compound 573]	<30%	<30%	<30%	–
CC1CCN(C(=O)CCCC(CCC(=O)N2CCC(C)CC2)N2Cc3cc(Oc4ccccc4)ccc3N=C2N)CC1 (stereo not drawn) [Compound 532]	<30%	<30%	68%	–
CCCC=Cc1ccc2c(c1)CN(CCNC(=O)Cc1ccccc1)C(N)=N2 [Compound 596]	<30%	<30%	<30%	–
CC(C)N(C(=O)CCN1Cc2cc(Oc3ccccc3)ccc2N=C1N)C(C)C [Compound 181]	<30%	<30%	32%	–
CN(C(=O)CCC(C1CCCCC1)N1Cc2cc(Oc3ccccc3)ccc2N=C1N)C1CCC(C#N)CC1 (stereo not drawn) [Compound 769]	–	–	–	% Inhibition (FS) (0.3 μM compound, FS1 substrate): <30%; % Inhibition (FS) (1 μM compound, FS1 substrate): 61%
CC(C)(C)C(=O)NCCN1Cc2cc(-c3ccccc3Cl)ccc2N=C1N [Compound 653]	46%	82%	101%	–
NC1=Nc2ccc(Oc3ccccc3)cc2CN1CC(NC(=O)C1CCCCC1)C1CCCCC1 (stereo not drawn) [Compound 637]	<30%	<30%	73%	–
COc1ccccc1-c1ccc2c(c1)CN([C@@H](CCC(=O)N(C)Cc1csc(-c3ccccc3)n1)C1CCCCC1)C(N)=N2 [Compound 716]	–	–	–	% Inhibition (FS) (0.3 μM compound, FS1 substrate): <30%; % Inhibition (FS) (1 μM compound, FS1 substrate): <30%; % Inhibition (FS) (3 μM compound, FS1 substrate): 72%
CCCC(CNC(=O)C1CCCCC1)N1Cc2cc(Oc3ccccc3)ccc2N=C1N (stereo not drawn) [Compound 554]	–	–	–	% Inhibition (FS) (0.3 μM test compound, 0.3 µM): <30%; % Inhibition (FS) (1 μM test compound, 1 µM): <30%; % Inhibition (FS) (3 μM test compound, 3 µM): 42%
NC1=Nc2ccc(-c3cccc(C(F)(F)F)c3)cc2CN1CCNC(=O)Cc1ccccc1 [Compound 600]	<30%	<30%	41%	–
CC(=O)c1ccccc1-c1ccc2c(c1)CN(Cc1cccc(C(=O)N(C)C3CCCCC3)c1)C(N)=N2 [Compound 323]	<30%	<30%	45%	–
